From US11639503B2, “Anti-chymase aptamer and use for same” (RIBOMIC INC., priority 2017, dated 2023)

Molecular target: T1, chymase purified from human skin mast cell (native, Calbiochem) (Homo sapiens, UniProt P23946)
T1 construct: Here, the native is chymase purified from human skin mast cell; purchased Calbiochem; host or cells: human skin mast cell (tissue-derived)
T1 sequence (P23946 22-247): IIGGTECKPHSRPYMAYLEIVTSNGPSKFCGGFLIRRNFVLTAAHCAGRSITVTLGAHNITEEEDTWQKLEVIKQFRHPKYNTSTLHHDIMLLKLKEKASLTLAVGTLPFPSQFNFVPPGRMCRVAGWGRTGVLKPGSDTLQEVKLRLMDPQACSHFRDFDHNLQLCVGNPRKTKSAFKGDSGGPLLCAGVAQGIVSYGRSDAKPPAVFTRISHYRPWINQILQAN
Assay: chymase enzyme activity inhibition, native substrate angiotensin I (His-Leu fluorescence)
Type: biochemical
Conditions: angiotensin I as substrate, mean of 2 or 3 measurements
Procedure: A second method of evaluation employs a native substrate. A useful native substrate for chymase is angiotensin I. Here, His-Leu, a peptide fragment released upon degradation of angiotensin I, is fluorescently derivatized, and the fluorescence intensity therefrom is quantified.
In the assay, an enzyme reaction is carried out in 50 μL of solution C. First, 0.3-0.75 ng of chymase (recombinant, manufactured by SIGMA; or native, manufactured by Calbiochem) is diluted in solution C to obtain 5 μL chymase solution. Each nucleic acid is prepared in solution C to obtain 25 μL solutions. 5 μL of each chymase dilution and 25 μL of each nucleic acid solution are mixed, and then the mixture is incubated at 37° C. for 5 minutes. Separately, 20 μL of 125 μM angiotensin I (manufactured by Peptide Institute, Inc.) is prepared in solution C and incubated at 37° C. for 5 minutes. The angiotensin I solution is added to the mixture of chymase and nucleic acid, and the enzyme reaction is initiated. After the reaction was allowed to proceed at 37° C. for 90 minutes, 25 μL of ice-cooled 30% trichloroacetic acid solution is added to terminate the reaction. The entire mixture is centrifuged at 4° C., 14000 rpm for 10 minutes, and 30 μL of the resulting supernatant is used for the subsequent reaction for fluorescent derivatization.
After 30 μL of the supernatant is added to a 96-well plate (Black, manufactured by Costar), 15 μL of 2% o-phthalaldehyde (manufactured by SIGMA) solution in methanol and 170 μL of 0.3M NaOH solution are mixed in each well, and the plate is allowed to stand at room temperature for 10 minutes. Subsequently, 25 μL of 3M HCl solution is added to terminate the reaction. The plate is set to the microplate reader SpectraMax190 (manufactured by Molecular Devices Corporation), and the fluorescence intensity is determined at an excitation wavelength of 355 nm and a fluorescence wavelength of 460 nm.
For control, samples are treated and analyzed in the same manner in two cases: use of SEQ ID NO: 58 (negative control) and use of chymostatin, a known chymotrypsin-like serine protease inhibitor (positive control). In both cases, fluorescence intensity obtained at 0 minute reaction time serves as a blank determination. Taking the fluorescence intensity detected with the addition of an equal volume of solution C, in place of each nucleic acid, in the chymase enzyme reaction as 100%, the inhibitory rate for each test substance is calculated, and the inhibitor concentration required to cause a 50% inhibition of the enzyme activity (IC50) is determined.
Whether the nucleic acids shown by SEQ ID NO: 9 and 10 inhibit the enzyme activity of chymase was determined by the following method. Angiotensin I is converted by chymase to angiotensin II, during which a peptide fragment His-Leu is released. Since the peptide His-Leu is fluorescently derivatized by o-phthalaldehyde, its fluorescence intensity can be quantitatively measured.
The total volume of solution for an enzyme reaction in the assay was set to 50 μL, and the reaction was performed in solution C buffer. At first, native (manufactured by Calbiochem) was diluted with solution C to give 5 μL thereof. Here, the native is chymase purified from human skin mast cell. The nucleic acid was serially diluted with solution C at a concentration of 0.0027-2 μM to give 25 μL thereof. The chymase solution (5 μL) and the nucleic acid solution (25 μL) were mixed, and the mixture was incubated at 37° C. for 5 min. On the other hand, […] angiotensin I (manufactured by PEPTIDE INSTITUTE, INC.) was prepared in solution C to give 20 μL thereof, which was incubated at 37° C. for 5 min. The angiotensin I solution was added to a mixture of chymase and nucleic acid to start an enzyme reaction. The final chymase concentration of the reaction solution was 0.5 nM, and the final substrate concentration was 50 μM. […]

[1] = Table 3, >1 = no inhibitory activity up to 1 μM

With “17(9) (GAUGAUCGGACAUAACAUUGUUGGGGUGUCAA; aptamer; 2'-O-methyl, idT end and other modifications, positions not given here)” as the substance, how does the IC50 (Table 4) read?
The IC50 was 0.16 nM.

With “33(13) (AUGAUCGGACAUAACUAAUUAGGGGUGUCAA; aptamer; modified variant with 2'-O-methyl and end modifications, pattern not given here)” as the substance, how does the IC50 (Table 6) read?
Its IC50 is 0.069 nM.

With “17(20) (GAUGAUCGGACAUAACAUUGUUGGGGUGUCAA; aptamer; 2'-O-methyl, idT end and other modifications, positions not given here)” as the substance, how does the IC50 (Table 4) read?
The IC50 was 0.18 nM.

With “33(11) (AUGAUCGGACAUAACUAAUUAGGGGUGUCAA; aptamer; modified variant with 2'-O-methyl and end modifications, pattern not given here)” as the substance, how does the IC50 (Table 6) read?
The IC50 was 0.051 nM.

With “11 (GGGUCAGAUGAUCGGACAUAACAUUGUUGGGGUGUCAAGGCCC; 2'-fluoro at CU, RNA at AG, backbone not given here) [compound 11]” as the substance, how does the IC50 [1] read?
Its IC50 is 54.7 nM.

For “17(5) (GAUGAUCGGACAUAACAUUGUUGGGGUGUCAA; aptamer; 2'-O-methyl, idT end and other modifications, positions not given here)”, which IC50 (Table 4) is on record?
The IC50 was 0.17 nM.

How did the IC50 (Table 6) turn out when “33(12) (AUGAUCGGACAUAACUAAUUAGGGGUGUCAA; modification pattern variant (12), chemistry not fully specified)” was run?
Its IC50 is 0.048 nM.

“33(7) (AUGAUCGGACAUAACUAAUUAGGGGUGUCAA; aptamer; modified variant with 2'-O-methyl and end modifications, pattern not given here)” was tested. Which IC50 (Table 6) did it give?
Its IC50 is 0.071 nM.

For “15 (GAUGAUCGGACAUAACAUUGUUGGGGUGUCAAGCC; 2'-fluoro at CU, RNA at AG, backbone not given here) [compound 15]”, which IC50 [1] is on record?
The IC50 was 1.4 nM.

With “33(6) (AUGAUCGGACAUAACUAAUUAGGGGUGUCAA; aptamer; modified variant with 2'-O-methyl and end modifications, pattern not given here)” as the substance, how does the IC50 (Table 6) read?
The IC50 was 0.053 nM.

For “17(21) (GAUGAUCGGACAUAACAUUGUUGGGGUGUCAA; aptamer; 2'-O-methyl, idT end and other modifications, positions not given here)”, which IC50 (Table 4) is on record?
The IC50 was 0.19 nM.

With “17(19) (GAUGAUCGGACAUAACAUUGUUGGGGUGUCAA; aptamer; 2'-O-methyl, idT end and other modifications, positions not given here)” as the substance, how does the IC50 (Table 4) read?
The IC50 was 0.19 nM.

“33(16) (AUGAUCGGACAUAACUAAUUAGGGGUGUCAA; aptamer; modified variant with 2'-O-methyl and end modifications, pattern not given here)” was tested. Which IC50 (Table 6) did it give?
The IC50 was 0.063 nM.

With “20 (GAUGAUCGGACAUAACAUUGUUGGGGUGUCA; 2'-fluoro at CU, RNA at AG, backbone not given here) [compound 20]” as the substance, how does the IC50 [1] read?
The IC50 was 1.8 nM.

How did the IC50 (Table 6) turn out when “33(14) (AUGAUCGGACAUAACUAAUUAGGGGUGUCAA; aptamer; modified variant with 2'-O-methyl and end modifications, pattern not given here)” was run?
Its IC50 is 0.075 nM.

How did the IC50 (Table 6) turn out when “33(17) (AUGAUCGGACAUAACUAAUUAGGGGUGUCAA; aptamer; modified variant with 2'-O-methyl and end modifications, pattern not given here)” was run?
The IC50 was 0.038 nM.

With “18 (UGAUCGGACAUAACAUUGUUGGGGUGUCAA; 2'-fluoro at CU, RNA at AG, backbone not given here) [compound 18]” as the substance, how does the IC50 [1] read?
The IC50 was 2.1 nM.

“17(23) (GAUGAUCGGACAUAACAUUGUUGGGGUGUCAA; aptamer; 2'-O-methyl, idT end and other modifications, positions not given here)” was tested. Which IC50 (Table 4) did it give?
The IC50 was 0.16 nM.

With “17(4) (GAUGAUCGGACAUAACAUUGUUGGGGUGUCAA; aptamer; 2'-O-methyl, idT end and other modifications, positions not given here)” as the substance, how does the IC50 (Table 4) read?
Its IC50 is 0.2 nM.

“19 (AUCGGACAUAACAUUGUUGGGGUGUCAA; 2'-fluoro at CU, RNA at AG, backbone not given here) [compound 19]” was tested. Which IC50 [1] did it give?
The IC50 was 14.4 nM.

Which IC50 (Table 4) does the source give for “17(2) (GAUGAUCGGACAUAACAUUGUUGGGGUGUCAA; aptamer; 2'-O-methyl, idT end and other modifications, positions not given here)” here?
Its IC50 is 0.21 nM.

Which IC50 (Table 6) does the source give for “33(5) (AUGAUCGGACAUAACUAAUUAGGGGUGUCAA; aptamer; modified variant with 2'-O-methyl and end modifications, pattern not given here)” here?
The IC50 was 0.076 nM.

Which IC50 (Table 4) does the source give for “17(15) (GAUGAUCGGACAUAACAUUGUUGGGGUGUCAA; aptamer; 2'-O-methyl, idT end and other modifications, positions not given here)” here?
Its IC50 is 0.13 nM.

Which IC50 (Table 4) does the source give for “17(18) (GAUGAUCGGACAUAACAUUGUUGGGGUGUCAA; aptamer; 2'-O-methyl, idT end and other modifications, positions not given here)” here?
The IC50 was 0.15 nM.

For “17(16) (GAUGAUCGGACAUAACAUUGUUGGGGUGUCAA; aptamer; 2'-O-methyl, idT end and other modifications, positions not given here)”, which IC50 (Table 4) is on record?
The IC50 was 0.18 nM.

With “17(3) (GAUGAUCGGACAUAACAUUGUUGGGGUGUCAA; aptamer; 2'-O-methyl, idT end and other modifications, positions not given here)” as the substance, how does the IC50 (Table 4) read?
Its IC50 is 5.66 nM.

With “14 (GGCAGAUGAUCGGACAUAACAUUGUUGGGGUGUCAAGCC; 2'-fluoro at CU, RNA at AG, backbone not given here) [compound 14]” as the substance, how does the IC50 [1] read?
The IC50 was 6.8 nM.

Which IC50 (Table 6) does the source give for “33(10) (AUGAUCGGACAUAACUAAUUAGGGGUGUCAA; aptamer; modified variant with 2'-O-methyl and end modifications, pattern not given here)” here?
Its IC50 is 0.071 nM.

“17(10) (GAUGAUCGGACAUAACAUUGUUGGGGUGUCAA; aptamer; 2'-O-methyl, idT end and other modifications, positions not given here)” was tested. Which IC50 (Table 4) did it give?
The IC50 was 0.13 nM.

With “17(25) (GAUGAUCGGACAUAACAUUGUUGGGGUGUCAA; 2'-O-methyl, idT end and other modifications, positions not given here)” as the substance, how does the IC50 (Table 4) read?
Its IC50 is 0.2 nM.

“16 (GGCAGAUGAUCGGACAUAACAUUGUUGGGGUGUCAA; 2'-fluoro at CU, RNA at AG, backbone not given here) [compound 16]” was tested. Which IC50 [1] did it give?
Its IC50 is 2 nM.

With “17(8) (GAUGAUCGGACAUAACAUUGUUGGGGUGUCAA; aptamer; 2'-O-methyl, idT end and other modifications, positions not given here)” as the substance, how does the IC50 (Table 4) read?
The IC50 was 0.13 nM.

“33(15) (AUGAUCGGACAUAACUAAUUAGGGGUGUCAA; aptamer; modified variant with 2'-O-methyl and end modifications, pattern not given here)” was tested. Which IC50 (Table 6) did it give?
The IC50 was 0.072 nM.

How did the IC50 [1] turn out when “13 (GGACAUAACAUUGUUGGGGUGUCAAGG; 2'-fluoro at CU, RNA at AG, backbone not given here) [compound 13]” was run?
Its IC50 is > 1000 nM.

How did the IC50 (Table 4) turn out when “17(22) (GAUGAUCGGACAUAACAUUGUUGGGGUGUCAA; aptamer; 2'-O-methyl, idT end and other modifications, positions not given here)” was run?
The IC50 was 0.17 nM.
